What was measured:
[1] = system: Porcine Smooth Muscle Cell; test: Porcine smooth muscle cell antiproliferation, 3H thymidine incorporation; type: cell-based; conditions: Sus scrofa, growth factor or serum stimulated, 24-36 h at 37° C., compound added with 3H thymidine and serum / growth factor
Experimental: Effects of Compounds on Cell Proliferation Using ^3 H Thymidine Incorporation
Human and porcine smooth muscle cells were tested in early passage (generally passage 3-7) at sub-confluent conditions. Cultures were grown in 16 mm (24 well) multi-well culture dishes in medium 199 supplemented with 10% fetal bovine serum and 2% antibiotic / antimycotic. At sub-confluence, the cells were placed in a defined serum free medium (AIM-V; Gibco) for 24-48 h prior to initiating the experimental protocol.
Compounds were added to each well at 50 fold dilution (20 AL / well) and the plates were incubated for 24-36 h at 37° C. in 5% CO2. Compounds were initially dissolved in 50% ethanol and serially diluted into media. Compounds were routinely evaluated at concentrations from 1 to 100 μM. As a control, grade II porcine intestinal mucosal heparin (sodium salt) was routinely evaluated in all cell preparations at concentrations from 0.1 to 100 μg/mL.
At the completion of the test procedure, plates were placed on ice, washed three times with ice cold phosphate buffered saline (PBS) and incubated in ice cold 10% trichloroacetic acid (TCA) got 30 min to remove acid soluble proteins. Solution was transferred to scintillation vials containing 0.4 N HCl (500 μL/ vial to neutralize NaOH) and each well was rinsed two times with water (500 μL) for a total volume of 2 mL / vial.
Data was obtained, in triplicate, for both control and experimental samples. Control (100%) data was obtained from maximally stimulated cells, as the result of growth factor or serum stimulation. Experimental data was obtained from cells maximally stimulated with growth factor or serum and treated with compound. Data are expressed as an IC50 in Table I below.

[2] = system: smooth muscle cell (SMC); conditions: literature; cited from earlier work
[3] = system: endothelial cell; conditions: literature (Castellot 1987); cited from earlier work
[4] = literature (Reilly 1993); cited from earlier work

Work on `CC(=O)Nc1cc(CO[C@@H]2O[C@H](Cn3cnc([N+](=O)[O-])c3)[C@@H](O[C@H]3O[C@@H]4COC(c5ccccc5)O[C@H]4[C@H](O)[C@H]3O)[C@H](O)[C@H]2O)ccc1C` (stereo partly drawn) [Example 1, N-(5-{[4',6'-O-Benzylidene-6-deoxy-6-(4-nitro-1H-imidazol-1-yl)-β-D-maltosyl-oxy]-methyl}-2-methyl-phenyl)-acetamide] yielded an IC50 [1] of 11 µM.
In the case of `CC(=O)Nc1cc(CO[C@@H]2O[C@H](Cn3cnc([N+](=O)[O-])c3)[C@@H](O[C@H]3O[C@@H]4COC(c5ccccc5)O[C@H]4[C@H](OC(C)=O)[C@H]3OC(C)=O)[C@H](OC(C)=O)[C@H]2OC(C)=O)ccc1Cl` (stereo partly drawn) [Example 2, N-(5-{[2,3,2',3'-Tetra-O-acetyl-4',6'-O-benzylidene-6-deoxy-6-(4-nitro-1 H-imidazol-1-yl)-β-D-maltosyl]-oxy-methyl}-2-chloro-phenyl)-acetamide], the IC50 [1] is reported as 0.807 µM.
With `CC(=O)Nc1cc(CO[C@@H]2O[C@H](Cn3cnc([N+](=O)[O-])c3)[C@@H](O[C@H]3O[C@@H]4COC(c5ccccc5)O[C@H]4[C@H](O)[C@H]3O)[C@H](O)[C@H]2O)ccc1Cl` (stereo partly drawn) [Example 3, N-(5-{[4',6'-O-Benzylidene-6-deoxy-6-(4-nitro-1H-imidazol-1-yl)-β-D-maltosyl]-oxy-methyl}-2-chloro-phenyl)-acetamide] the IC50 [1] was 1.85 µM.
In the case of `CC(=O)Nc1cc(CO[C@@H]2O[C@H](CI)[C@@H](O[C@H]3O[C@@H]4COC(c5ccccc5)O[C@H]4[C@H](OC(C)=O)[C@H]3OC(C)=O)[C@H](OC(C)=O)[C@H]2OC(C)=O)ccc1Cl` (stereo partly drawn) [Example 4, N-{5-[(2,2',3,3'-Tetra-O-acetyl-4',6',-O-benzylidene-6-deoxy-6-iodo-β-D-maltosyl)-oxy-methyl]-2-chloro-phenyl}-acetamide], the IC50 [1] is reported as 0.2 µM.
With `CC(=O)Nc1cc(CO[C@@H]2O[C@H](CI)[C@@H](O[C@H]3O[C@@H]4COC(c5ccccc5)O[C@H]4[C@H](O)[C@H]3O)[C@H](O)[C@H]2O)ccc1Cl` (stereo partly drawn) [Example 5, N-{5-[(4',6',-O-Benzylidene-6-deoxy-6-iodo-β-D-maltosyl)-oxy-methyl]-2-chloro-phenyl}-acetamide] the IC50 [1] was 1.16 µM.
Compound `CC(=O)Nc1cc(CO[C@@H]2O[C@H](CN3C(=O)c4ccccc4C3=O)[C@@H](O[C@H]3O[C@@H]4COC(c5ccccc5)O[C@H]4[C@H](OC(C)=O)[C@H]3OC(C)=O)[C@H](OC(C)=O)[C@H]2OC(C)=O)ccc1Cl` (stereo partly drawn) [Example 6, N-(5-{[2,2',3,3'-Tetra-O-acetyl-4',6'-O-benzylidene-6-deoxy-6-(1,3-dioxo-1,3-dihydro-isoindol-2-yl)-β-D-maltosyl]-oxy-methyl}2-chloro-phenyl)-acetamide] has an IC50 [1] of 0.84 µM.
Compound `CC(=O)Nc1cc(CO[C@@H]2O[C@H](CN3C(=O)c4ccccc4C3=O)[C@@H](O[C@H]3O[C@@H]4COC(c5ccccc5)O[C@H]4[C@H](O)[C@H]3O)[C@H](O)[C@H]2O)ccc1Cl` (stereo partly drawn) [Example 7, N-(5-{[4',6'-O-Benzylidene-6-deoxy-6-(1,3-dioxo-1,3-dihydro-isoindol-2-yl)-β-D-maltosyl]-oxy-methyl}-2-chloro-phenyl)-acetamide] has an IC50 [1] of 1.59 µM.
`CC(=O)Nc1cc(CO[C@@H]2O[C@H](CN=[N+]=[N-])[C@@H](O[C@H]3O[C@@H]4COC(c5ccccc5)O[C@H]4[C@H](O)[C@H]3O)[C@H](O)[C@H]2O)ccc1Cl` (stereo partly drawn) [Example 8, N-{5-[(6-Deoxy-6-azido-4',6'-O-benzylidene-β-D-maltosyl)-oxy-methyl]-2-chloro-phenyl}-acetamide] gave an IC50 [1] of 0.614 µM.
For heparan sulfate, the “inhibition of SMC proliferation” value [2] is listed as “endogenous inhibitors of SMC proliferation” and the endothelial cell growth [3] is listed as “able to promote endothelial cell growth”.
In the case of heparin, the “inhibition of SMC proliferation” value [2] is given as “endogenous inhibitors of SMC proliferation” and the endothelial cell growth [3] is given as “able to promote endothelial cell growth”.
For β-cyclodextrin tetradecasulfate, the inhibition of restenosis [4] is given as “effective inhibitor of restenosis” and the “inhibition of SMC proliferation” value [2] is given as “smooth muscle cell proliferation inhibitor”.

Reference: US6187755A, “Benzylmaltosides as inhibitors of smooth muscle cell proliferation” (American Home Products Corporation, priority 1999, dated 2001)
